According to ChEMBL document CHEMBL1150750, “Modified taxols, 4. Synthesis and biological activity of taxols modified in the side chain” (J Nat Prod, 1988):
≈ marks a conversion by molar mass, not a printed value.

What was measured:
P388 [1] = assay: In vivo cytotoxicity against mouse P388 cells at 44 mg/kg; assay type: functional
KB = assay: Cytotoxicity against human KB cells; assay type: functional; conditions: for EC50: Homo sapiens, KB, read-out: ED50 (the source's name)
P388 [2] = assay: In vivo cytotoxicity against mouse P388 cells at 22 mg/kg; assay type: functional
P388 [3] = assay: In vivo cytotoxicity against mouse P388 cells at 11 mg/kg; assay type: functional
P388 [4] = assay: In vivo cytotoxicity against mouse P388 cells at 5 mg/kg; assay type: functional
P388 [5] = assay: In vivo cytotoxicity against mouse P388 cells at 20 mg/kg; assay type: functional
P388 [6] = assay: In vivo cytotoxicity against mouse P388 cells at 2.5 mg/kg; assay type: functional
P388 [7] = assay: In vivo cytotoxicity against mouse P388 cells at 10 mg/kg; assay type: functional
P388 [8] = assay: In vivo cytotoxicity against mouse P388 cells at 40 mg/kg; assay type: functional
[9] = Solubility in water by HPLC method; assay type: physicochemical
[10] = Stability in water assessed as decomposition to taxol after 24 hrs; assay type: physicochemical; conditions: buffer
[11] = Chemical stability assessed as decomposition to taxol at pH 6.6 after 20 hrs; assay type: physicochemical; conditions: buffer, pH 6.6, 20 h
P388 [12] = assay: In vivo cytotoxicity against mouse P388 cells at 3.25 mg/kg; assay type: functional
P388 [13] = assay: In vivo cytotoxicity against mouse P388 cells at 13 mg/kg; assay type: functional
P388 [14] = assay: In vivo cytotoxicity against mouse P388 cells at 26 mg/kg; assay type: functional
P388 [15] = assay: In vivo cytotoxicity against mouse P388 cells at 6.5 mg/kg; assay type: functional

Row | Structure (SMILES) | EC50 (KB) [µg/mL] | ED50 (KB) | T/C (P388 [5]) [%] | T/C (P388 [7]) [%] | also measured
1 | CC(=O)O[C@H]1C(=O)[C@@]2(C)[C@H]([C@H](OC(=O)c3ccccc3)[C@]3(O)C[C@H](OC(=O)[C@H](OC(=O)CCC(=O)O)[C@@H](NC(=O)c4ccccc4)c4ccccc4)C(C)=C1C3(C)C)[C@]1(OC(C)=O)CO[C@@H]1C[C@@H]2O | 0.01 (≈ 0.0105 µM) | – | – | – | T/C (P388 [1]): 129%; T/C (P388 [2]): 122%; T/C (P388 [3]): 112%
2 | CC(=O)O[C@H]1C(=O)[C@@]2(C)[C@H]([C@H](OC(=O)c3ccccc3)[C@]3(O)C[C@H](OC(=O)[C@H](OC(C)=O)[C@@H](NC(=O)c4ccccc4)c4ccccc4)C(C)=C1C3(C)C)[C@]1(OC(C)=O)CO[C@@H]1C[C@@H]2O | – | 2 ×10⁻⁵ ug/ml | 140 | 130 | T/C (P388 [4]): 127%; T/C (P388 [6]): 127%
3 | CC(=O)O[C@H]1C(=O)[C@]2(C)[C@@H](OC(C)=O)C[C@H]3OC[C@@]3(OC(C)=O)[C@H]2[C@H](OC(=O)c2ccccc2)[C@]2(O)C[C@H](OC(=O)[C@H](OC(C)=O)[C@@H](NC(=O)c3ccccc3)c3ccccc3)C(C)=C1C2(C)C | 0.2 (≈ 0.213 µM) | – | 100 | 105 | T/C (P388 [8]): 104%
4 | CC(=O)O[C@H]1C(=O)[C@@]2(C)[C@H]([C@H](OC(=O)c3ccccc3)[C@]3(O)C[C@H](OC(=O)[C@H](OC(=O)CCN)[C@@H](NC(=O)c4ccccc4)c4ccccc4)C(C)=C1C3(C)C)[C@]1(OC(C)=O)CO[C@@H]1C[C@@H]2O.O=CO | – | 2 ×10⁻⁴ ug/ml | 130 | 117 | T/C (P388 [8]): 140%; solubility [9]: 2200 µg/mL; Stability [10]: 90%; Stability [11]: Unstable
5 | CC(=O)O[C@H]1C(=O)[C@@]2(C)[C@H]([C@H](OC(=O)c3ccccc3)[C@]3(O)C[C@H](OC(=O)[C@H](O[Si](C)(C)C(C)(C)C)[C@H](NC(=O)c4ccccc4)c4ccccc4)C(C)=C1C3(C)C)[C@]1(OC(C)=O)CO[C@@H]1C[C@@H]2O | 0.3 (≈ 0.31 µM) | – | – | – | –
6 | CC(=O)O[C@H]1C(=O)[C@@]2(C)[C@H]([C@H](OC(=O)c3ccccc3)[C@]3(O)C[C@H](OC(=O)[C@H](OC(=O)CCNC(=O)OCc4ccccc4)[C@@H](NC(=O)c4ccccc4)c4ccccc4)C(C)=C1C3(C)C)[C@]1(OC(C)=O)CO[C@@H]1C[C@@H]2O | – | 1 ×10⁻⁴ ug/ml | – | – | –
7 | CC(=O)O[C@H]1C(=O)[C@@]2(C)[C@H]([C@H](OC(=O)c3ccccc3)[C@]3(O)C[C@H](OC(=O)[C@@H]4OC(=O)N(C(=O)c5ccccc5)[C@H]4c4ccccc4)C(C)=C1C3(C)C)[C@]1(OC(C)=O)CO[C@@H]1C[C@@H]2O | 0.2 (≈ 0.227 µM) | – | – | – | –
8 | CC(=O)O[C@H]1C(=O)[C@]2(C)[C@@H](OC(C)=O)C[C@H]3OC[C@@]3(OC(C)=O)[C@H]2[C@H](OC(=O)c2ccccc2)[C@]2(O)C[C@H](OC(=O)[C@H](O)[C@@H](NC(=O)c3ccccc3)c3ccccc3)C(C)=C1C2(C)C [PACLITAXEL C7 ACETYLCARBOXYLIC ACID ESTER] | 0.004 (≈ 0.00446 µM) | – | – | – | T/C (P388 [12]): 128%; T/C (P388 [13]): 127%; T/C (P388 [14]): 130%; T/C (P388 [15]): 124%
9 | CC(=O)O[C@H]1C(=O)[C@@]2(C)[C@H]([C@H](OC(=O)c3ccccc3)[C@]3(O)C[C@H](OC(=O)[C@H](O)[C@@H](NC(=O)c4ccccc4)c4ccccc4)C(C)=C1C3(C)C)[C@]1(OC(C)=O)CO[C@@H]1C[C@@H]2O [PACLITAXEL] | – | 1 ×10⁻⁵ ug/ml | 104 | 137 | T/C (P388 [4]): 156%; T/C (P388 [6]): 147%
